Test results from ChEMBL document CHEMBL3351284, “Internalization and stability of a thymidylate synthase Peptide inhibitor in ovarian cancer cells” (J Med Chem, 2014).
Active and inactive are the calls of the source. The calls are words filed in the database; no cut-off is given here.

Test system: C13
Assay: Growth inhibition of cisplatin-resistant human C13 cells at 5 uM after 72 hrs by flow-cytometric analysis
Format: functional, cell-based

With `O=c1[nH]cc(F)c(=O)[nH]1` the “growth inhibition (GI)” value was “Active”.
